Test [1] has as its target Sulfonylurea receptor 1, Kir6.2 (Homo sapiens) (UniProt Q14654+Q09428). Description: Binding affinity to sulfonylurea receptor in pancreatic islet beta cell membranes.
In test [2] the test system is Escherichia coli. Description: Antibacterial activity against Escherichia coli upto 50 ug/mL. It counts as functional, organism-based.
Test [3] is described as follows: Reduction of blood glucose level in alloxan induced diabetic mice at 200 mg/kg. The format is functional, organism-based. Also noted: dose 200 mg/kg. As to conditions: Mus musculus, target entry is the homologue from another species.
Test [4] concerns Escherichia coli. Description: Antibacterial activity against Escherichia coli. The format is functional.

The source made the active and inactive calls.

On to `c1ccc(C[N+]23CCc4cc5c(cc4C2Cc2ccccc2C3)OCO5)cc1` (stereo unspecified), for which the outcome in test [1] was Active. Moreover, the outcome with Escherichia coli [2] was inactive.

As to `COc1ccc2c(c1OC)C[N+]1([O-])CCc3cc4c(cc3C1C2)OCO4` (stereo unspecified), the Activity in test [3] amounted to 23 mg/dL. Also, in test [1], the result was Active. In addition, the outcome in the test on Escherichia coli [2] was inactive.

As to `COc1ccc2c(c1OC)CN1CCc3cc4c(cc3[C@@H]1C2)OCO4`, the result (in test [1]; in the test with Escherichia coli [2]) was inactive.

As to `COc1ccc2cc3[n+](cc2c1OC)CCc1cc(O)c(O)cc1-3`, the result (in test [1]; with Escherichia coli [2]) was inactive.

For the molecule `COc1cc2c(cc1OC)-c1cc3ccc(OC)c(OC)c3c[n+]1CC2`, the result (in test [1]; with Escherichia coli [2]) was inactive.

Consider `COc1cccc2cc3[n+](cc12)CCc1cc2c(cc1-3)OCO2`, for which the outcome (in test [1]; with Escherichia coli [2]) was inactive.

On to `c1ccc2c(c1)CC1c3cc4c(cc3CCN1C2)OCO4` (stereo unspecified), for which the result (in test [1]; in the test on Escherichia coli [2]) was inactive.

Molecule `COc1ccc2cc3[n+](cc2c1O)CCc1cc2c(cc1-3)OCO2` displayed an Activity in test [3] of 12 mg/dL. For the same molecule, the outcome in test [1] was Active. For the same molecule, the result in the test with Escherichia coli [2] was inactive.

Consider `c1ccc(COc2ccc3c[n+]4c(cc3c2)-c2cc3c(cc2CC4)OCO3)cc1`, for which the result (in test [1]; in the test on Escherichia coli [2]) was inactive.

As for `COc1ccc2c(c1OC)C[N+]1(C)CCc3cc4c(cc3C1C2)OCO4` (stereo unspecified), the result (in test [1]; in the test with Escherichia coli [2]) was inactive.

`COc1ccc2c(c1)C(=O)N(CCc1ccc(S(=O)(=O)NC(=O)NC3CCCCC3)cc1)C(=O)C2(C)C`: the Activity in test [3] was 162 mg/dL. The result in test [1] was Active.

In general, MIC refers to the smallest concentration in the dilution series that meets the test's criterion for growth inhibition. In test [3], `COc1ccc2cc3[n+](cc2c1OC)CCc1cc2c(cc1-3)OCO2.[Cl-]` [BERBERINE CHLORIDE] returned an Activity of 61 mg/dL. Besides, the minimum inhibitory concentration (MIC) with Escherichia coli [4] amounted to 5 µg/mL. Also, in test [1], the outcome was Active.

`COc1ccc2cc3[n+](cc2c1OC)CCc1cc(OC(C)=O)c(OC(C)=O)cc1-3`: the outcome (in test [1]; with Escherichia coli [2]) was inactive.

Turning to `c1ccc2c[n+]3c(cc2c1)-c1cc2c(cc1CC3)OCO2`, the Activity in test [3] came out at 67 mg/dL. Moreover, the outcome in test [1] was Active. Further, in the test with Escherichia coli [2], the result was inactive.

For the molecule `CC[N+]12CCc3cc4c(cc3C1Cc1ccc(OC)c(OC)c1C2)OCO4` (stereo unspecified), the outcome (in test [1]; in the test on Escherichia coli [2]) was inactive.

In the case of `COc1ccc2c[n+]3c(cc2c1)-c1cc2c(cc1CC3)OCO2`, the outcome (in test [1]; in the test on Escherichia coli [2]) was inactive.

As to `COc1ccc2cc3[n+](cc2c1)CCc1cc2c(cc1-3)OCO2`, the outcome (in test [1]; with Escherichia coli [2]) was inactive.

With `COc1ccc2c(c1OC)C[N+]1(Cc3ccccc3)CCc3cc4c(cc3C1C2)OCO4` (stereo unspecified), the Activity in test [3] worked out at 146 mg/dL. The outcome in test [1] was Active. Further, the outcome with Escherichia coli [2] was inactive.

The record behind these values is ChEMBL document CHEMBL1139034, “Synthesis and antihyperglycemic evaluation of various protoberberine derivatives” (2006).
